The values below come from ChEMBL document CHEMBL1137068, “Design, synthesis and evaluation of bicyclic benzamides as novel 5-HT1F receptor agonists” (Bioorg Med Chem Lett, 2004).

Test [1] is filed under the species Homo sapiens. Put plainly: Ratio of binding affinity for 5-hydroxytryptamine 1D receptor to that of 5-hydroxytryptamine 1F receptor.
Test [2] concerns the target T1, 5-hydroxytryptamine receptor 1F (Homo sapiens, UniProt P30939).
T1 sequence (P30939 whole entry): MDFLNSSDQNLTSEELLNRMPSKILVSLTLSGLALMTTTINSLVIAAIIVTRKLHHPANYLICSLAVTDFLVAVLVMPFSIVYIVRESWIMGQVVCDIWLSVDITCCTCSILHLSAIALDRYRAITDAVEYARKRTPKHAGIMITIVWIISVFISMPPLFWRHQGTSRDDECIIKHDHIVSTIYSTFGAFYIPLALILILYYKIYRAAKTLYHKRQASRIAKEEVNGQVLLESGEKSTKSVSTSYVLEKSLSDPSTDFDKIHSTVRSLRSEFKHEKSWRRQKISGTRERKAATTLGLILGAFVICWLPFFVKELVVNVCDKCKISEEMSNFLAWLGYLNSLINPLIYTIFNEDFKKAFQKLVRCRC
The test is described as follows: In vitro binding affinity for human 5-hydroxytryptamine 1F receptor.

Test [3] is filed under the species Homo sapiens. Put plainly: Ratio of binding affinity for 5-hydroxytryptamine 1A receptor to that of 5-hydroxytryptamine 1F receptor.
The target of test [4] is T2, 5-hydroxytryptamine receptor 1F (Homo sapiens) (UniProt P30939).
T2 sequence (whole entry): T1 sequence (P30939 whole entry)
The test is described as follows: Maximum stimulation of [35S]GTP-gamma-S, binding to human 5-hydroxytryptamine 1F receptor expressed in Mouse LM(tk-) cells relative to maximum effect of 5-HT. It is filed as functional, cell-based. In general terms: GTPγS is a poorly hydrolysed GTP analogue; its binding reports G protein activation.

Test [5] addresses T1, 5-hydroxytryptamine receptor 1F. Put plainly: Stimulation of [35S]GTP-gamma-S, binding to cloned human 5-hydroxytryptamine 1F receptor expressed in Mouse LM(tk-) cells. The class given is functional, cell-based.
The target in test [6] is T3, 5-hydroxytryptamine receptor 1B (Homo sapiens, UniProt P28222). Put plainly: Inhibitory activity against human 5-hydroxytryptamine 1B receptor. Conditions: concentration not given here.
T3 sequence (P28222 whole entry): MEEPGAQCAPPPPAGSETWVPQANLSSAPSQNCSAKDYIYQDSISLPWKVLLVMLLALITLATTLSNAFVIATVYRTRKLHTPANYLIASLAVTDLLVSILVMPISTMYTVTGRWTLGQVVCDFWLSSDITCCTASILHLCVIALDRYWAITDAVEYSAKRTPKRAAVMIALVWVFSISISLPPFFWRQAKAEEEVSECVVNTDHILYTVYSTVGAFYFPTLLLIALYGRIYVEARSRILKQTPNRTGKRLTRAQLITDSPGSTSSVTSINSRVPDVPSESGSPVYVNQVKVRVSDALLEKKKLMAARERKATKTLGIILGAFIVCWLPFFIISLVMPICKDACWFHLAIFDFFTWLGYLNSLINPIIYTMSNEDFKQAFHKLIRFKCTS
Test [7] addresses T4, 5-hydroxytryptamine receptor 1A (Homo sapiens, UniProt P08908).
T4 sequence (P08908 whole entry): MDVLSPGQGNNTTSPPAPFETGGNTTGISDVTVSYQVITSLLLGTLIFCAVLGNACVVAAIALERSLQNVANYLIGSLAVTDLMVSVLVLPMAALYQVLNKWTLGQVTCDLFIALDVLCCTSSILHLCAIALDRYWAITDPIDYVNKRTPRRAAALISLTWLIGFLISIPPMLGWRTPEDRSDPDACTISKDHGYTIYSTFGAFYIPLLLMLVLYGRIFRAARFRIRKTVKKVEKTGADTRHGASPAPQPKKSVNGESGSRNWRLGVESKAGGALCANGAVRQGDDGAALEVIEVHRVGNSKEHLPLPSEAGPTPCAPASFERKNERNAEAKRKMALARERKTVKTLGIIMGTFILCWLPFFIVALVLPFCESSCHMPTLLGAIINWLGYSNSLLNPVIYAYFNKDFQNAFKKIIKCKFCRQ
Put plainly: In vitro binding affinity for human 5-hydroxytryptamine 1A receptor.

Test [8] addresses T3, 5-hydroxytryptamine receptor 1B. The test is described as follows: In vitro binding affinity for human 5-hydroxytryptamine 1B receptor.
The target in test [9] is T5, 5-hydroxytryptamine receptor 1D (Homo sapiens, UniProt P28221). The test is described as follows: Inhibitory activity against human 5-hydroxytryptamine 1D receptor. Conditions: concentration not given here.
T5 sequence (P28221 whole entry): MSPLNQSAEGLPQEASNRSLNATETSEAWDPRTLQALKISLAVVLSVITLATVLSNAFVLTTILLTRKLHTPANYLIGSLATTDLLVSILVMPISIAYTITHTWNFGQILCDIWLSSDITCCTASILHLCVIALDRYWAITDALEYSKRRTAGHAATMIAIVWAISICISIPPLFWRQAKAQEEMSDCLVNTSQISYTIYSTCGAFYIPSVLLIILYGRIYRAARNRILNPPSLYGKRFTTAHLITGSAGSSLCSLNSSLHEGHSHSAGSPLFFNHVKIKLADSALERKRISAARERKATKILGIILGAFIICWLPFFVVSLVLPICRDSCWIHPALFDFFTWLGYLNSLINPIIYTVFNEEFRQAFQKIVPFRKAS
The target in test [10] is T5, 5-hydroxytryptamine receptor 1D. The test is described as follows: In vitro binding affinity for human 5-hydroxytryptamine 1D receptor.
Test [11] shares this target. The test is described as follows: Inhibitory activity against 5-hydroxytryptamine 1D receptor at 10 uM.
Test [12] concerns the target T3, 5-hydroxytryptamine receptor 1B. Put plainly: Inhibitory activity against 5-hydroxytryptamine 1B receptor at 10 uM.

Structures are written as SMILES. pEC50, pKi: −log10 of the molar value.

One may read the pKi as the Ki on a negative log10 scale, so that one unit is a factor of ten. One may read the Emax as the maximal effect, on the per cent scale that the assay sets. A word on the pEC50: it is the negative decadic logarithm of the EC50, by convention in mol/L. Higher therefore signals a low EC50. As usually defined, the inhibition is the relative decrease from the control value, in per cent. The low end stands for a weak effect, the high end for a strong effect.

For the compound `CN1CCC(N2CNc3ccc(NC(=O)c4c(F)cc(F)cc4F)cc32)CC1`, the Selectivity ratio was determined as 120 in the test listed under Homo sapiens [1] and 50 in the test listed under Homo sapiens [3]. In test [2], this compound gave a pKi of 7.77. In addition, the Emax in test [4] turned out to be 95%. The compound also showed a negative-log EC50 (pEC50) in test [5] of 7.30.
In test [2], `CN1CCC(c2noc3ccc(NC(=O)c4ccc(F)cc4Cl)cc23)CC1` had a pKi of 8.44. Also, the Selectivity ratio in the test listed under Homo sapiens [3] stood at 30. In [4], this compound displayed an Emax of 71%. The compound also had a pEC50 in test [5] of 6.85.
As to `CN1CCC(C2CNc3ccc(NC(=O)c4ccc(F)cc4)cc32)CC1` (stereo in doubt; form 1) [listing 1 of 2 here], the inhibition in [6] is less than 50%.
As for `CN1CCC(C2CNc3ccc(NC(=O)c4ccc(F)cc4)cc32)CC1` (stereo in doubt; form 2) [listing 1 of 2 here], the pKi is 8.02 in test [2] and 6.60 in [7].
In the case of `CN1CCC(n2ncc3ccc(NC(=O)c4ccc(F)cc4)cc32)CC1`, the results for the pKi in [2], in [7] and in test [8] were 8.39, 6.51 and 5.62, respectively. In test [9], the inhibition was less than 50%.
Turning to `CN1CCC(N2CCOc3ccc(NC(=O)c4ccc(F)cc4)cc32)CC1`, the pKi in test [2] was 6.28; in test [7], 6.07; in test [10], 5.64. The inhibition in [6] was less than 50%.
As for `CN1CCC(N2CNc3ccc(NC(=O)c4ccc(F)cc4Cl)cc32)CC1`, the Selectivity ratio came out at 80 in the test filed under Homo sapiens [1] and 70 in the test filed under Homo sapiens [3]. The pKi in [2] was 7.89. For the same compound, the Emax in test [4] amounted to 98%. The pEC50 in test [5] was 7.20.
Take `CN1CCC(N2CCc3ccc(NC(=O)c4ccc(F)cc4)cc32)CC1`: the negative-log Ki (pKi) in test [2] is 8.32; in [7], 7.92; in test [8], 6.36; in test [10], 6.68.
Regarding `CN1CCC(C2CNc3ccc(NC(=O)c4ccc(F)cc4)cc32)CC1` (stereo in doubt; form 1) [listing 2 of 2 here], the pKi is 8.07 in test [2] and 6.60 in [7].
As for `CN1CCC(c2noc3ccc(NC(=O)c4ccc(F)cc4)cc23)CC1`, the figures for the pKi in test [2] and in [7] were 7.77 and 6.80, respectively. Further, in the test listed under Homo sapiens [3], the Selectivity ratio turned out to be 10. In addition, the inhibition in test [11] and in test [12] was less than 50% throughout.
Consider `CN1CCC(C2CNc3ccc(NC(=O)c4ccc(F)cc4)cc32)CC1` (stereo in doubt; 3) [listing 1 of 2 here], for which the figures for the Selectivity ratio in the test listed under Homo sapiens [1] and in the test listed under Homo sapiens [3] were 250 and 30, respectively. Further, the inhibition in test [6] is less than 50%.
Consider `CN1CCC(C2CNc3ccc(NC(=O)c4ccc(F)cc4)cc32)CC1` (stereo in doubt; 3) [listing 2 of 2 here], for which the pKi is 8.05 in test [2], 6.62 in [7] and 5.64 in test [10].
In test [6], `CN1CCC(C2CNc3ccc(NC(=O)c4ccc(F)cc4)cc32)CC1` (stereo in doubt; form 2) [listing 2 of 2 here] showed an inhibition of less than 50%.
In [2], `CN1CCC(c2noc3ccc(NC(=O)c4ccc(F)cc4F)cc23)CC1` showed a pKi of 7.92. In addition, the Selectivity ratio in the test filed under Homo sapiens [3] came out at 10. For the same compound, the Emax in [4] is 73%. The same compound had a pEC50 in test [5] of 6.33.
Turning to `CN1CCC(c2n[nH]c3ccc(NC(=O)c4ccc(F)cc4)cc23)CC1`, the pKi in test [2] is 8.41; in test [7], 6.06; in test [8], 5.64; in test [10], 5.51.
As to `CN1CCC(n2ccc3ccc(NC(=O)c4ccc(F)cc4)cc32)CC1`, the pKi is 8.66 in test [2], 7.96 in test [7], 6.59 in test [8] and 6.85 in [10].
